Laboratory results from patent US6902913B2, “Recombinant narbonolide polyketide synthase” (priority 1997, dated 2005).

Legend:
[1] = target: T1, picK protein (Streptomyces venezuelae, UniProt O87605, G416S); assay: hydroxylase activity of the picK protein (conversion of narbomycin to picromycin); assay type: biochemical; settings: crude supernatant of E. coli BL21-DE3/pKOS023-61, 20 nmol narbomycin, 105 minutes at 30° C., by ELSD peak area
T1 construct: made in house; host or cells: E. coli BL21-DE3
Experimental: Plasmid pKOS023-61 was transformed into E. coli BL21-DE3. Successful transformants were grown in LB-containing carbenicillin (100 μg/ml) at 37° C. to an OD600 of 0.6. Isopropyl-beta-D-thiogalactopyranoside (IPTG) was added to a final concentration of 1 mM, and the cells were grown for an additional 3 hours before harvesting. The cells were collected by centrifugation and frozen at −80° C. A control culture of BL21-DE3 containing the vector plasmid pET21c (Invitrogen) was prepared in parallel.
The frozen BL21-DE3/pKOS023-61 cells were thawed, suspended in […] of cold cell disruption buffer (5 mM imidazole, 500 mM NaCl, 20 mM Tris/HCl, pH 8.0) and sonicated to facilitate lysis. Cellular debris and supernatant were separated by centrifugation and subjected to SDS-PAGE on 10-15% gradient gels, with Coomassie Blue staining, using a Pharmacia Phast Gel Electrophoresis system. The soluble crude extract from BL21-DE3/pKOS023-61 contained a Coomassie stained band of Mr˜46 kDa, which was absent in the control strain BL21-DE3/pET21c.
The hydroxylase activity of the picK protein was assayed as follows. […] Half of the reaction mixture was loaded onto an HPLC, and the effluent was analyzed by evaporative light scattering (ELSD) and mass spectrometry. […]

[2] = target: T2, 6-hydroxylase encoded by eryF (Saccharopolyspora erythraea, UniProt Q00441); assay: in vitro 6-hydroxylation by the 6-hydroxylase encoded by eryF; assay type: biochemical; settings: 100 pmol hydroxylase, 10 nmol substrate, 90 minutes at 30° C., based on relative total ion counts
T2 construct: made in house; host or cells: E. coli
T2 sequence (Q00441 1-404): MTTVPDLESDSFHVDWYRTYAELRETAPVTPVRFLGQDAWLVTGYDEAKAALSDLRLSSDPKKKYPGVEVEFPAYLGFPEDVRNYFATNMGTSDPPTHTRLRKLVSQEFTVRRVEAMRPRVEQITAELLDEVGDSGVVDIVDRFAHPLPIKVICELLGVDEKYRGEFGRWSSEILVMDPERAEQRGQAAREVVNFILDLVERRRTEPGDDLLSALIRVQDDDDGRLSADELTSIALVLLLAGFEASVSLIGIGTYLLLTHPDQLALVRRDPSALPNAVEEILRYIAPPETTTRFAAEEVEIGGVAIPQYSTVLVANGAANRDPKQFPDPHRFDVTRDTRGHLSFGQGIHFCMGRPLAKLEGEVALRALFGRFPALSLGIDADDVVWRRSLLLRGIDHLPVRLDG
Experimental: The 6-hydroxylase encoded by eryF was expressed in E. coli, and partially purified. The hydroxylase (100 pmol in 10 μL) was added to a reaction mixture (100 μl total volume) containing 50 mM Tris/HCl (pH 7.5), 20 μM spinach ferredoxin, 0.025 Unit of spinach ferredoxin:NADP^+ oxidoreductase, 0.8 Unit of glucose-6-phosphate dehydrogenase, 1.4 mM NADP^+, 7.6 mM glucose-6-phosphate, and 10 nmol 6-deoxyerythronolide B. The reaction was allowed to proceed for 90 minutes at 30° C. Half of the reaction mixture was loaded onto an HPLC, and the effluent was analyzed by mass spectrometry. The production of erythronolide B as evidenced by a new peak eluting earlier in the gradient and showing [M+H]^+=401. Conversion was estimated at 50% based on relative total ion counts.

Compound | conversion of narbomycin to picromycin [1] | conversion of 6-deoxyerythronolide B to erythronolide B [2] [%]
CC[C@H]1OC(=O)[C@H](C)C(=O)[C@H](C)[C@@H](O[C@@H]2O[C@H](C)C[C@H](N(C)C)[C@H]2O)[C@@H](C)C[C@@H](C)C(=O)/C=C/[C@H]1C [narbomycin] | greater than 90% | 
CC[C@H]1OC(=O)[C@H](C)[C@@H](O)[C@H](C)[C@@H](O)[C@@H](C)C[C@@H](C)C(=O)[C@H](C)[C@@H](O)[C@H]1C [6-deoxyerythronolide B] |  | ~50
